Results on 23 molecules are retold here after patent US7319109B2, “Farnesoid X receptor agonists” (Smith Kline Beecham Corporation, priority 2002, dated 2008).

The target in the assay is T1, Human FXRα Ligand Binding Domain (FXRα LBD) (Homo sapiens, UniProt Q96RI1).
T1 construct: polyhistidine (N); made in house; host or cells: E. coli BL21 (DE3), pRSET-A vector
T1 sequence (Q96RI1 222-472 isoform Q96RI1-2): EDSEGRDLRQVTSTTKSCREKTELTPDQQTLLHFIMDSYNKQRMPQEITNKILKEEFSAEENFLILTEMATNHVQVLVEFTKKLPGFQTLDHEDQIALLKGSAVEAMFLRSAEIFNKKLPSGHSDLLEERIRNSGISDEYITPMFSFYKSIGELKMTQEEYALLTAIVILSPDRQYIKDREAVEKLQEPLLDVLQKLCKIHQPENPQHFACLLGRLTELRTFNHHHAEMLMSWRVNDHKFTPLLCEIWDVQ
In words: FXR Affinity Binding Assay: ligand mediated cofactor peptide (SRC-1 LCD2, 676-700) interaction, time resolved fluorescence. The following applies: FXRα LBD-APC / europium labeled SRC-1 peptide, TRF signal, at least 2 hours at room temperature; read-out: Activity (pEC50) (converted). The procedure:
Determination of a ligand mediated cofactor peptide interaction to quantify ligand binding to the nuclear receptor Farnasoid X Receptor (FXR). The method measures the ability of putative ligands to modulate the interaction between the purified bacterial expressed FXRα (LBD) and a synthetic biotinylated peptide based on residues 676-700 of SRC-1(LCD2, 676-700). […] Detection of the associated complex is measured by time resolved fluorescence (TRF). The purified LBD of FXR is labeled with biotin then mixed with stoichiometric amounts of APC labeled streptavidin (Molecular Probes). The biotinylated peptide is then mixed with a ½ stoichiometric amount of europium labeled streptavidin (Wallac Inc). Each is then blocked with a 5 fold excess of biotin and allowed to equilibrate for 15 min. Equimolar amounts of receptor and peptide are mixed together and allowed to equilibrate for at least 30 min prior to the addition to either a variable or constant concentrations of the sample for which the affinity is to be determined. After equilibration, the time-resolved fluorescent signal is quantitated using a fluorescent plate reader. The affinity of the test compound is estimated from a plot of fluorescence versus concentration of test compound added.
Ligands that promote the complex formation induce a concentration-dependent increase in time-resolved fluorescent signal.
Human FXRα Ligand Binding Domain (FXRα LBD) was expressed in E.coli strain BL21 (DE3) as an amino-terminal polyhistidine tagged fusion protein. Expression was under the control of an IPTG inducible T7 promoter. DNA encoding this recombinant protein was subcloned into the pRSET-A expression vector (Invitrogen). The coding sequence of Human FXRα LBD was derived from Genbank accession number U 68233 (amino acids 222 to 472).
Routinely, 30-40 g cell paste (equivalent to 2-3 liters of the fermentation batch) was resuspended in 200-250 mL TBS, pH 7.2 (25mM Tris, 150 mM NaCl). Cells were lysed by passing 3 times through a French Press and cell debris was removed by centrifugation (30 minutes, 20,000 g, 4° C.). The cleared supernatant was filtered through course pre-filters, and TBS, pH 7.2, containing 500 mM imidazole was added to obtain a final imidazole concentration of 50 mM. This lysate was loaded onto a column (6×8 cm) packed with Sepharose [Ni^++ charged]Chelation resin (Pharmacia) and pre-equilibrated with TBS pH 7.21 50 mM imidazole. After washing to baseline absorbance with equilibration buffer, the column was washed with one column volume of TBS pH 7.2 containing 90 mM imidazole. FXRαLBD was eluted directly with 365 mM imidazole. Column fractions were pooled and dialyzed against TBS, pH 7.2, containing 0.5 mM EDTA and 5 mM DTT. The dialyzed protein sample was concentrated using Centri-prep 10 K (Amicon) and subjected to size exclusion, using a column (3×90 cm) packed with Sepharose S-75 resin (Pharmacia) pre-equilibrated with TBS, pH 7.2, containing 0.5 mM EDTA and 5 mM DTT.
Purified FXRα LBD was desalted/buffer exchanged using PD-10 gel filtration columns into PBS [100 mM NaPhosphate, pH 7.2, 150 mM NaCl]. FXRα LBD was diluted to approximately 10 μM in PBS and five-fold molar excess of NHS-LC-Biotin (Pierce) was added in a minimal volume of PBS. This solution was incubated with gentle mixing for 30 minutes at room temperature. The biotinylation modification reaction was stopped by the addition of 2000× molar excess of Tris-HCl, pH 8. The modified FXRα LBD was dialyzed against 4 buffer changes, each of at least 50 volumes, PBS containing 5 mM DTT, 2 mM EDTA and 2% sucrose.
In the case of `CC(C)c1onc(-c2c(Cl)cccc2Cl)c1COc1ccc(N(C)S(=O)(=O)c2ccc(C(=O)O)cc2)c(Cl)c1` [Example 62, 4-{[(2-Chloro-4-{[3-(2,6-dichlorophenyl)-5-isopropylisoxazol-4-yl]methoxy}phenyl)-(methyl)amino]sulfonyl}benzoic acid], the EC50 was less than 100 nM.
On to `CC(C)c1onc(-c2ccccc2OC(F)(F)F)c1COc1ccc(CN(C)c2cccc(C(=O)O)c2)c(Cl)c1` [Example 97, 3-[[2-Chloro-4-({5-isopropyl-3-[2-(trifluoromethoxy)phenyl]-4-isoxazolyl}methoxy)benzyl](methyl)amino]benzoic acid], for which the EC50 was 102 to 1000 nM.
Take `CCN(c1ccc(OCc2c(-c3c(Cl)cccc3Cl)noc2C(C)C)cc1Cl)S(=O)(=O)c1cccc(C(=O)O)c1` [Example 50]: the EC50 was less than 100 nM.
As for `Cc1cc(OCc2c(Cc3c(Cl)cccc3Cl)noc2C2CC2)ccc1N(C)Cc1cccc(C(=O)O)c1` [Example 17, 3-[(4-{[5-Cyclopropyl-3-(2,6-dichlorobenzyl)-4-isoxazolyl]methoxy}-2-dimethylanilino)methyl]benzoic acid], the EC50 is 102 to 1000 nM.
The same measure for `Cc1cc(OCc2c(-c3c(Cl)cccc3Cl)noc2C(C)C)ccc1N(C)Cc1ccc(-c2csnn2)cc1` [Example 8, N-(4-{[3-(2,6-Dichlorophenyl)-5-isopropyl-4-isoxazolyl]methoxy}-2-methylphenyl)-N-methyl-N-[4-(1,2,3-thiadiazol-4-yl)benzyl]amine]: 102 to 1000 nM; for `Cc1cc(OCc2c(-c3c(Cl)cccc3Cl)noc2C(C)C)ccc1N(C)C(=O)c1cccc(C(=O)O)c1` [Example 29, 3-[(4-{[3-(2,6-Dichlorophenyl)-5-isopropyl-4-isoxazolyl]methoxy}-2-dimethylanilino)carbonyl]benzoic acid]: 102 to 1000 nM; for `CC(C)c1onc(-c2c(Cl)cccc2Cl)c1COc1ccc(COc2cccc(C(=O)O)c2)c(Cl)c1` [Example 77, 3-[(2-Chloro-4-{[3-(2,6-dichlorophenyl)-5-isopropylisoxazol-4-yl]methoxy}benzyl)oxy]-benzoic acid]: less than 100 nM.
`COC(=O)c1ccc(CN(C)c2ccc(OCc3c(-c4c(Cl)cccc4Cl)noc3C(C)C)cc2C)cc1` [Example 2, Methyl 4-[(4-{[3-(2,6-dichlorophenyl)-5-isopropyl-4-isoxazolyl]methoxy}-2-dimethylanilino)methyl]benzoate]: the EC50 is less than 100 nM.
For the molecule `COC(=O)c1ccc(OCc2ccc(OCc3c(-c4c(Cl)cccc4Cl)noc3C(C)C)cc2Cl)cc1` [Example 75, Methyl 4-[(2-chloro-4-{[3-(2,6-dichlorophenyl)-5-isopropylisoxazol-4-yl]methoxy}benzyl)oxy]benzoate], the EC50 was 102 to 1000 nM.
Take `Cc1cc(OCc2c(-c3c(Cl)cc(Cl)cc3Cl)noc2C(C)C)ccc1N(C)Cc1cccc(C(=O)O)c1` [Example 14, 3-{[(4-{[5-Isopropyl-3-(2,4,6-trichlorophenyl)isoxazol-4-yl]methoxy}-2-methylphenyl)-(methyl)amino]methyl}benzoic acid]: the EC50 was 102 to 1000 nM.
In the case of `COC(=O)c1cccc(S(=O)(=O)N(C)c2ccc(OCc3c(-c4ccccc4OC(F)(F)F)noc3C(C)C)cc2Cl)c1` [Example 70, Methyl 3-{[[2-chloro-4-({5-isopropyl-3-[2-(trifluoromethoxy)phenyl]-isoxazol-4-yl}methoxy)phenyl](methyl)amino]sulfonyl}benzoate], the EC50 was 102 to 1000 nM.
Regarding `CC(C)c1onc(-c2c(Cl)cccc2Cl)c1COc1ccc(N(C)S(=O)(=O)c2cccc(C(=O)O)c2)cc1` [Example 49, 3-{[(4-{[3-(2,6-Dichlorophenyl)-5-isopropylisoxazol-4-yl]methoxy}phenyl)(methyl)-amino]sulfonyl}benzoic acid], the EC50 is 102 to 1000 nM.
On to `COC(=O)c1ccc(COc2ccc(OCc3c(-c4c(Cl)cccc4Cl)noc3C(C)C)cc2C)cc1` [Example 98, Methyl 4-[(4-{[3-(2,6-dichlorophenyl)-5-isopropylisoxazol-4-yl]methoxy}-2-methylphenoxy)methyl]benzoate], for which the EC50 was 1020 to 10000 nM.
Take `CC(C)c1onc(-c2c(Cl)cccc2Cl)c1COc1ccc(NS(=O)(=O)c2cccc(C(=O)O)c2)c(Cl)c1` [Example 46, 3-{[(2-Chloro-4-{[3-(2,6-dichlorophenyl)-5-isopropylisoxazol-4-yl]methoxy}phenyl)amino]sulfonyl}benzoic acid]: the EC50 is 102 to 1000 nM.
On to `COC(=O)c1cccc(S(=O)(=O)N(C)c2ccc(OCc3c(-c4c(Cl)cccc4Cl)noc3C(C)C)cc2C)c1` [Example 35, Methyl 3-{[(4-{[3-(2,6-dichlorophenyl)-5-isopropylisoxazol-4-yl]methoxy}-2-methylphenyl)(methyl)amino]sulfonyl}benzoate], for which the EC50 was 102 to 1000 nM.
Regarding `COC(=O)c1ccoc1CN(C)c1ccc(OCc2c(-c3c(Cl)cccc3Cl)noc2C(C)C)cc1C` [Example 6, Methyl 2-[(4-{[3-(2,6-dichlorophenyl)-5-isopropyl-4-isoxazolyl]methoxy}-2-dimethylanilino)methyl]-3-furoate], the EC50 was 102 to 1000 nM.
Regarding `COC(=O)c1cccc(C(=O)Nc2ccc(OCc3c(-c4c(Cl)cccc4Cl)noc3C(C)C)cc2Cl)c1` [Example 24, Methyl 3-[(2-chloro-4-{[3-(2,6-dichlorophenyl)-5-isopropyl-4-isoxazolyl]methoxy}anilino)carbonyl]benzoate], the EC50 is 102 to 1000 nM.
On to `CCN(c1ccc(OCc2c(-c3c(Cl)cccc3Cl)noc2C(C)C)cc1)S(=O)(=O)c1cccc(C(=O)O)c1` [Example 52, 3-{[(4-{[3-(2,6-Dichlorophenyl)-5-isopropylisoxazol-4-yl]methoxy}phenyl)(ethyl)-amino]sulfonyl}benzoic acid], for which the EC50 was 102 to 1000 nM.
In the case of `COC(=O)c1ccc(CN(C)c2ccc(OCc3c(-c4ccccc4OC(F)(F)F)noc3C(C)C)cc2C)cc1` [Example 22, Methyl 4-{[4-({5-isopropyl-3-[2-(trifluoromethoxy)phenyl]-4-isoxazolyl}methoxy)-2-dimethylanilino]methyl}benzoate], the EC50 is 102 to 1000 nM.
As for `CCN(c1ccc(OCc2c(-c3c(Cl)cccc3Cl)noc2C(C)C)cc1Cl)S(=O)(=O)c1cccc(C(=O)OC)c1` [Example 43, Methyl 3-{[(2-chloro-4-{[3-(2,6-dichlorophenyl)-5-isopropylisoxazol-4-yl]methoxy}-phenyl)(ethyl)amino]sulfonyl}benzoate], the EC50 was 1020 to 10000 nM.
In the case of `Cc1cc(OCc2c(-c3c(Cl)cccc3Cl)noc2C(C)C)ccc1N(C)Cc1cccc(C(=O)O)c1` [Example 1, 3-{[(4-{[3-(2,6-Dichlorophenyl)-5-isopropylisoxazol-4-yl]methoxy}-2-methylphenyl)(methyl)amino]methyl}benzoic acid], the EC50 was less than 100 nM.
Regarding `CC(C)c1onc(-c2c(Cl)cccc2Cl)c1COc1ccc(NS(=O)(=O)c2cccc(C(=O)O)c2)cc1` [Example 40, 3-{[(4-{[3-(2,6-Dichlorophenyl)-5-isopropylisoxazol-4-yl]methoxy}phenyl)amino]-sulfonyl}benzoic acid], the EC50 was 1020 to 10000 nM.
Consider `COC(=O)c1cccc(OCc2ccc(OCc3c(-c4c(Cl)cccc4Cl)noc3C(C)C)cc2Cl)c1` [Example 76, Methyl 3-[(2-chloro-4-{[3-(2,6-dichlorophenyl)-5-isopropylisoxazol-4-yl]methoxy}benzyl)-oxy]benzoate], for which the EC50 is 102 to 1000 nM.
